Measurements as given in publication PMC12169489, “Allosteric Covalent Inhibitors of the STAT3 Transcription Factor from Virtual Screening” (ACS Medicinal Chemistry Letters, 2025).
Where “and” joins values, the source holds several entries; their conditions need not be identical. Identical values can stand only once.

Tests used:
[1] = target: T1, STAT3 protein (residues 127–688) (Homo sapiens, UniProt P40763); assay: Fluorescence polarization (FP) assay, 5-FAM-G(pTyr)LPQTV-NH2 peptide; assay type: binding; details: 200 nM STAT3, 5 nM fluorescent peptide, 1 h at 37 °C preincubation, mean ± 95% confidence interval, 3 replicas
T1 construct: The STAT3 protein (residues 127–688) was expressed and purified; made in house
Experimental: The STAT3 protein (residues 127–688) was expressed and purified as described in our recent work. Fluorescence polarization assays were performed on a Molecular Devices SpectraMax iD5Multimode Microplate Reader (San Jose, CA, USA) using Greiner black 384-well flat-bottom nonbinding microplates with 40 μL final well volumes. The fluorescent peptide (5-FAM-G(pTyr)-LPQTV-NH2, purchased from GenScript Biotech Ltd., Piscataway, NJ, USA), as well as the protein were diluted with a buffer containing 50 mM NaCl, 10 mM HEPES (4-(2-hydroxyethyl)-1-piperazineethanesulfonic acid), 1 mM EDTA (ethylenediaminetetraacetic acid), 2 mM DTT (dithiothreitol), and 0.1% Triton X-100, pH 7.5. The final concentration of the STAT3 protein was 200 nM, and the fluorescent peptide was added at a final concentration of 5 nM. The wells were treated with varying concentrations of inhibitor compounds, with a 5% final DMSO content. Protein and inhibitors were incubated at 37 °C for 1 h. Then the fluorescence peptide was added, and then the plate was incubated for another 20 min prior to the fluorescence readout (extinction wavelength: 475 nm, emission wavelength: 520 nm). The measurements were carried out using 3 parallel biological replicas. Fluorescence polarization was calculated from the perpendicular and parallel fluorescence intensities and then plotted against concentration. The IC50 values were determined after fitting […] dose–response curves on data points using GraphPad Prism 8.0.1. software.
Figure S6. Fluorescence polarization assay results. Nonlinear curve fitting was used ([Inhibitor] vs. response - Variable slope (four parameters)) with least squares fitting. IC50s are presented with 95% confidence intervals, measurements were done in 3 parallel biological replicas.

STAT3 protein = STAT3 protein (Homo sapiens, UniProt P40763); assay: Intact protein LC-MS labelling; assay type: binding
Text: 1 Overview of the virtual screening workflow and hit follow-up. (a) Overview of the covalent docking virtual screening workflow, including representation of the key residues inside the binding site and highlighting the C259 residue. Remaining molecules after each step are included in parentheses. (b) Schematic representation of the expected mass peaks and shifts from the MS results for single and multiple labeling. The values assigned to the peaks for other than the peak corresponding to the unlabeled protein represents mass shift(s) resulting from successful labeling.
RPLC-MS analysis of the intact proteins were performed on a a Triple TOF 5600+ hybrid Quadrupole-TOF LC/MS/MS system (Sciex, MA, USA) equipped with a DuoSpray IonSource coupled with a Shimadzu Prominence LC20 UFLC (Shimadzu, Japan) system consisting of quaternary pump, an autosampler and a thermostatted column compartment. Chromatographic separation was achieved on the Discovery® BIO Wide Pore C-18-5 (250 mm × 2.1mm, 5 μm, 300 Å) HPLC column. Sample was eluted in gradient elution mode using solvent A (0.1% formic acid in water) and solvent B (0.1% formic acid in ACN). The initial condition was 5% B for 7 min, followed by a linear gradient to 90% B by […], from 55 to 63 min 90% B was retained; and from 63 to 65 min back to initial condition with 5 % eluent B and retained for 10 min. Flow rate was set to 0.2 ml/min. […]

T1 sequence (P40763 127-688): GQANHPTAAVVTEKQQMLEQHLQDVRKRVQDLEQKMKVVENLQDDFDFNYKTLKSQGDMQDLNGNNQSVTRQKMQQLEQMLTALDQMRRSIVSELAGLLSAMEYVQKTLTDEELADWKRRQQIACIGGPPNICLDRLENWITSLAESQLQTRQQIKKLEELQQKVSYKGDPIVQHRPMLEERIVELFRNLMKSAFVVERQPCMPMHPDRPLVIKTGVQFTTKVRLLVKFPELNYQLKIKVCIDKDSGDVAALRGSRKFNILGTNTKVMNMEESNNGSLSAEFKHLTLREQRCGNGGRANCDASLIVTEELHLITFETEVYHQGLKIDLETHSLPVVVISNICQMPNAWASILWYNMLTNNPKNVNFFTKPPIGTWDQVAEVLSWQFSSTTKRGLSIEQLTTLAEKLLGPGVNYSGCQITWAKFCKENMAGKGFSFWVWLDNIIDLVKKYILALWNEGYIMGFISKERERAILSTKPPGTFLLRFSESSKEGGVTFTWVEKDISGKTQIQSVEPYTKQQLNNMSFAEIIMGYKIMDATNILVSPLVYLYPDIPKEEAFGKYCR
STAT3 protein, sequence (P40763 127-688 limits assumed): as the sequence (P40763 127-688) above

Row | SMILES | IC50 [1] | Covalent labelling of STAT3 (single vs multiple) (STAT3 protein)
1 | C=CC(=O)N1CCCC(O)(C(=O)NCc2ccc3c(c2)OCO3)C1 (centres unmarked) [6b, 1-acryloyl-N-(benzo[d][1,3]dioxol-5-ylmethyl)-3-hydroxypiperidine-3-carboxamide] | 2.91 ± 0.66 µM | single labeling
2 | C=CC(=O)N1CCCC(C(=O)NCc2ccc3c(c2)OCO3)C1 (centres unmarked) [6a, 1-acryloyl-N-(benzo[d][1,3]dioxol-5-ylmethyl)piperidine-3-carboxamide] | 50.4 ± 39.4 µM | 
3 | C=CC(=O)N1CCC(C(=O)N2CCN(C(=O)Cc3ccccc3C)CC2)CC1 [K10] | 94.6 µM and 94.5 µM | 
4 | C=CC(=O)N1CC(C(=O)NCCN2CC3CCCCN3C2=O)C1 (centres unmarked) [K3] | 255 ± 124 µM | 
5 | C=CC(=O)N1CCCC(C(=O)NCc2cc(Br)c3c(c2)OCO3)C1 (centres unmarked) [K2] | 40.7 ± 16.7 µM | 
6 | C=CC(=O)N1CCC(C(=O)NCC(O)c2c(F)cccc2F)CC1 (centres unmarked) [K6] | 44.9 ± 22.7 µM | 
7 | CCC(=O)N1CCCC(O)(C(=O)NCc2ccc3c(c2)OCO3)C1 (centres unmarked) [10b, N-(benzo[d][1,3]dioxol-5-ylmethyl)-3-hydroxy-1-propionylpiperidine-3-carboxamide] | 86.7 ± 49.9 µM | 
8 | C=CS(=O)(=O)N1CCCC(C(=O)NCc2ccc3c(c2)OCO3)C1 (centres unmarked) [compound 8, N-(benzo[d][1,3]dioxol-5-ylmethyl)-1-(vinylsulfonyl)piperidine-3-carboxamide] | 33.4 ± 5 µM | labeled the protein at multiple residues
9 | CCC(=O)N1CCCC(C(=O)NCc2ccc3c(c2)OCO3)C1 (centres unmarked) [10a, N-(benzo[d][1,3]dioxol-5-ylmethyl)-1-propionylpiperidine-3-carboxamide] | 141 ± 53.4 µM | 
